The record followed here is BindingDB's records for doi:10.1021/jm00367a006 (1984).

pEC50: −log10 of the molar value.

The experiment deals with dopamine D1 receptor (Rattus norvegicus). Description: Effective concentration that gives maximal stimulation of cyclic AMP production over the concentration range tested.

Usually pEC50 stands for the negative decadic logarithm of the EC50, by convention in mol/L. `CN1Cc2c(N)cccc2[C@H](c2ccc(O)c(O)c2)C1` had a pEC50 of 5.73.
Under `CN1Cc2c(N)cccc2C(c2ccc(O)c(O)c2)C1` (configuration not stated) [4-(8-Amino-2-methyl-1,2,3,4-tetrahydro-isoquinolin-4-yl)-benzene-1,2-diol] stands 5.54.
